From US9290490B2 (Merck Sharp & Dohme Corp., priority 2011, dated 2016)
Where two headings read alike, the source gives them in different places.

Columns and labels:
[1] = biological target: recombinant human GST-Syk (Homo sapiens (Human), UniProt P43405); assay: Homogeneous Time-Resolved Fluorescence (HTRF) Assay for the Recombinant Human Syk Enzyme; format: biochemical; conditions: recombinant human GST-Syk 5 pM, ATP 25 μM
Method: Homogeneous Time-Resolved Fluorescence (HTRF) Assay for the Recombinant Human Syk Enzyme:
A recombinant GST-hSyk fusion protein was used to measure potency of compounds to inhibit human Syk activity. The recombinant human GST-Syk (Carna Biosciences #08-176) (5 pM final concentration) was incubated with various concentrations of the inhibitor diluted in DMSO (0.1% final concentration) for 10 minutes at room temperature in 15 mM Tris-HCl (pH 7.5), 0.01% tween 20, 2 mM DTT in 384 well plate format. To initiate the reaction the biotinylated substrate peptide (250 nM final concentration) that contains the phosphorylation site for Syk was added with magnesium (5 mM final concentration) and ATP (25 μM final concentration). Final volume of the reaction was 10 μL. Phosphorylation of the peptide was allowed to proceed for 45′ at room temperature. To quench the reaction and detect the phosphorylated product, 2 nM of a Europium-anti-phosphotyrosine antibody (Perkin Elmer #AD0161) and 70 nM SA-APC (Perkin-Elmer #CR130-100) were added together in 15 mM Tris pH 7.5, 40 mM EDTA, 0.01% Tween 20. Final volume of the quenching solution was 10 μL. The resulting HTRF signal was measured after 30 minutes on a EnVision (Perkin-Elmer) reader using a time-resolved fluorescence protocol. […] IC50 values are also provided for the following representative compounds: […]

PGD2 = conditions: intranasal, allergic rhinitis, phase I/II; cited from earlier work
[2] = allergic rhinitis, phase II; cited from earlier work
[3] = 10-dose titration, read-out: rhSyk
[4] = read-out: rhSyk Activity (IC50)

Structure (SMILES) | IC50 [1, 3] | IC50 [1, 4] | further results
Cc1cc(Nc2nccc(C)n2)cc(-c2cnc(C(C)(O)C3CCC(C(=O)O)CC3)s2)c1 (stereo not drawn) [Example 2-53] | 13 nM | ≤ 100 nM | –
Cc1cc(Nc2nccc(C)n2)cc(-c2cnc(C(C)(O)C3CCC(NOC(=O)Cc4ccccc4)CC3)s2)c1 (stereo not drawn) [Example 2-57] | 123 nM | 100 to 1000 nM | –
Cc1cc(Nc2ncc(Cl)c(C)n2)cc(-c2cnc(C(C)(O)C3CCC(C(=O)O)CC3)s2)c1 (stereo not drawn) [Example 2-60] | 5 nM | ≤ 100 nM | –
CCCCC(=O)OC1CCC(C(C)(O)c2ncc(-c3cc(C)cc(Nc4ncc(F)c(OC)n4)c3)s2)CC1 (stereo not drawn) [Example 2-73] | 1460 nM | 1000 to 10000 nM | –
Cc1cc(Nc2nccc(C)n2)cc(-c2cnc(C(O)(C3CCC(C(=O)O)CC3)C(F)(F)F)s2)c1 (stereo not drawn) [Example 2-101] | 2 nM | ≤ 100 nM | –
Cc1cc(Nc2ncc(F)c(C)n2)cc(-c2cnc(C(O)(CO)C3CCC(C(=O)O)CC3)s2)c1 (stereo not drawn) [Example 2-109] | 15 nM | ≤ 100 nM | –
COC(C)(c1ncc(-c2cc(C)cc(Nc3nccc(C(F)(F)F)n3)c2)s1)[C@H]1CC[C@H](C(=O)O)CC1 (stereo partly drawn) [Example 2-110] | 1 nM | ≤ 100 nM | –
Cc1cc(Nc2nccc(C(F)(F)F)n2)cc(-c2cnc(C(N)[C@H]3CC[C@H](C(=O)O)CC3)s2)c1 (stereo partly drawn) [Example 2-112] | 3 nM | ≤ 100 nM | –
Cc1cc(Nc2nccc(C(F)(F)F)n2)cc(-c2cnc(C(C)(O)C3CCC(C(=O)O)C3)s2)c1 (stereo not drawn) [Example 3-1] | – | ≤ 100 nM | –
Cc1cc(Nc2nccc(C(F)(F)F)n2)cc(-c2cnc(C(C)(O)C3CCC(C(=O)O)C3)s2)c1 (stereo not drawn) [Example 3-2] | 2 nM | ≤ 100 nM | –
Cc1cc(Nc2nccc(C(F)(F)F)n2)cc(-c2cnc(C(C)(O)C3CCC(C(=O)O)C3)s2)c1 (stereo not drawn) [Example 3-3] | – | ≤ 100 nM | –
Cc1cc(Nc2nccc(C(F)(F)F)n2)cc(-c2cnc(C(C)(O)C3CCC(C(=O)O)C3)s2)c1 (stereo not drawn) [Example 3-4] | – | ≤ 100 nM | –
Cc1cc(Nc2nccc(C(F)(F)F)n2)cc(-c2cnc(C(C)(O)C3CCC(C)(C(=O)O)CC3)s2)c1 (stereo not drawn) [Example 3-5] | – | ≤ 100 nM | –
Cc1cc(Nc2nccc(C(F)(F)F)n2)cc(-c2cnc(C(C)(O)C3CCC(C)(C(=O)O)CC3)s2)c1 (stereo not drawn) [Example 3-6] | – | ≤ 100 nM | –
Cc1cc(Nc2nccc(C(F)(F)F)n2)cc(-c2cnc(C(C)(O)C3CCC(C)(C(=O)O)CC3)s2)c1 (stereo not drawn) [Example 3-7] | – | ≤ 100 nM | –
Cc1cc(Nc2nccc(C(F)(F)F)n2)cc(-c2cnc(C(F)C3CCC(C(=O)O)CC3)s2)c1 (stereo not drawn) [Example 4-6] | 2 nM | ≤ 100 nM | –
Cc1cc(Nc2nccc(C)n2)cc(-c2cnc(C[C@]3(O)CC[C@@H](C(=O)O)CC3)s2)c1 [Example 5 (cis isomer), cis-4-hydroxy-4-[(5-{3-methyl-5-[(4-methylpyrimidin-2-yl)amino]phenyl}-1,3-thiazol-2-yl)methyl]cyclohexanecarboxylic acid] | – | ≤ 100 nM | –
Cc1cc(Nc2nccc(C(F)(F)F)n2)cc(-c2cnc(C(O)[C@H]3CC[C@@H](C(N)=O)CC3)s2)c1 [Example 7 (cis isomer), cis-4-{hydroxy[5-(3-methyl-5-{[4-(trifluoromethyl)pyrimidin-2-yl]amino}phenyl)-1,3-thiazol-2-yl]methyl}cyclohexanecarboxamide] | – | ≤ 100 nM | –
Cc1cc(Nc2nccc(C(F)(F)F)n2)cc(-c2cnc(C(O)[C@H]3CC[C@H](C(N)=O)CC3)s2)c1 [Example 7 (trans isomer), trans-4-{hydroxy[5-(3-methyl-5-{[4-(trifluoromethyl)pyrimidin-2-yl]amino}phenyl)-1,3-thiazol-2-yl]methyl}cyclohexanecarboxamide] | 35 nM | ≤ 100 nM | –
Cc1cc(Nc2nccc(C(F)F)n2)cc(-c2cnc(C(C)(O)[C@H]3CC[C@H](C(=O)O)CC3)s2)c1Br (stereo partly drawn) [Example 8-1] | – | ≤ 100 nM | –
Cc1cc(Nc2nccc(C(F)(F)F)n2)cc(-c2cnc(C(O)(CF)[C@H]3CC[C@H](C(=O)O)CC3)s2)c1 (stereo partly drawn) [Example 9, trans-4-{2-fluoro-1-hydroxy-1-[5-(3-methyl-5-{[4-(trifluoromethyl)pyrimidin-2-yl]amino}phenyl)-1,3-thiazol-2-yl]ethyl}cyclohexanecarboxylic acid] | – | ≤ 100 nM | –
Cc1cc(Nc2nccc(C(F)(F)F)n2)cc(-c2cnc([C@@](O)(CF)[C@H]3CC[C@H](C(=O)O)CC3)s2)c1 [Example 10] | – | ≤ 100 nM | –
Cc1cc(Nc2nccc(C(F)(F)F)n2)cc(-c2cnc(C(O)C3CCC(O)CC3(C)C)s2)c1 (stereo not drawn) [Example 12, 4-{hydroxy[5-(3-methyl-5-{[4-(trifluoromethyl)pyrimidin-2-yl]amino}phenyl)-1,3-thiazol-2-yl]methyl}-3,3-dimethylcyclohexanol] | – | ≤ 100 nM | –
CCOC(=O)C1CCC(Cc2ncc(-c3cc(C)cc(Nc4nccc(C)n4)c3)s2)CC1 (stereo not drawn) [Example 13, step 2, ethyl 4-[(5-{3-methyl-5-[(4-methylpyrimidin-2-yl)amino]phenyl}-1,3-thiazol-2-yl)methyl]cyclohexanecarboxylate] | 301 nM | 100 to 1000 nM | –
COC(=O)[C@@H]1CC(C(=O)c2ncc(-c3cc(C)cc(Nc4nccc(C(F)(F)F)n4)c3)s2)[C@H](O)C1(C)C (stereo partly drawn) [Example 14, methyl (1,3-cis, 1,4-trans)-3-hydroxy-2,2-dimethyl-4-{[5-(3-methyl-5-{[4-(trifluoromethyl)-pyrimidin-2-yl]amino}phenyl)-1,3-thiazol-2-yl]carbonyl}cyclopentanecarboxylate] | 850 nM | 100 to 1000 nM | –
Cc1cc(Nc2nccc(C(F)(F)F)n2)cc(-c2cnc(C(O)C3CCC4(CC3)OCCO4)s2)c1 (stereo not drawn) [Example 22, 1,4-dioxaspiro[4.5]dec-8-yl[5-(3-methyl-5-{[4-(trifluoromethyl)pyrimidin-2-yl]amino}phenyl)-1,3-thiazol-2-yl]methanol] | 197 nM | 100 to 1000 nM | –
Cc1cc(Nc2nccc(C(F)(F)F)n2)cc(-c2cnc(C(C)(O)C3CCC(C)(O)CC3)s2)c1 (stereo not drawn) [Example 23, 4-{1-hydroxy-1-[5-(3-methyl-5-{[4-(trifluoromethyl)pyrimidin-2-yl]amino}phenyl)-1,3-thiazol-2-yl]ethyl}-1-methylcyclohexanol] | – | ≤ 100 nM | –
Oc1cccc(Nc2ncc(F)c(Nc3cccc(O)c3)n2)c1 [Example R112] | – | – | decrease in PGD2 (PGD2): statistically significant decrease; safety across a range of indicators (PGD2): safe; efficacy versus placebo [2]: lack of efficacy
Cc1cc(Nc2nccc(C(F)(F)F)n2)cc(-c2cncs2)c1 [Intermediate 21, N-[3-methyl-5-(1,3-thiazol-5-yl)phenyl]-4-(trifluoromethyl)pyrimidin-2-amine] | – | ≤ 100 nM | –
